These results are taken from ChEMBL document CHEMBL4417636, “Small molecule inhibitors of pendrin ion exchange and pharmaceutical compositions” (2017).

The source made the active and inactive calls. No cut-off for these calls is given here.

In assay [1] the target is T1, Pendrin (Homo sapiens, UniProt O43511).
T1 sequence (O43511 whole entry): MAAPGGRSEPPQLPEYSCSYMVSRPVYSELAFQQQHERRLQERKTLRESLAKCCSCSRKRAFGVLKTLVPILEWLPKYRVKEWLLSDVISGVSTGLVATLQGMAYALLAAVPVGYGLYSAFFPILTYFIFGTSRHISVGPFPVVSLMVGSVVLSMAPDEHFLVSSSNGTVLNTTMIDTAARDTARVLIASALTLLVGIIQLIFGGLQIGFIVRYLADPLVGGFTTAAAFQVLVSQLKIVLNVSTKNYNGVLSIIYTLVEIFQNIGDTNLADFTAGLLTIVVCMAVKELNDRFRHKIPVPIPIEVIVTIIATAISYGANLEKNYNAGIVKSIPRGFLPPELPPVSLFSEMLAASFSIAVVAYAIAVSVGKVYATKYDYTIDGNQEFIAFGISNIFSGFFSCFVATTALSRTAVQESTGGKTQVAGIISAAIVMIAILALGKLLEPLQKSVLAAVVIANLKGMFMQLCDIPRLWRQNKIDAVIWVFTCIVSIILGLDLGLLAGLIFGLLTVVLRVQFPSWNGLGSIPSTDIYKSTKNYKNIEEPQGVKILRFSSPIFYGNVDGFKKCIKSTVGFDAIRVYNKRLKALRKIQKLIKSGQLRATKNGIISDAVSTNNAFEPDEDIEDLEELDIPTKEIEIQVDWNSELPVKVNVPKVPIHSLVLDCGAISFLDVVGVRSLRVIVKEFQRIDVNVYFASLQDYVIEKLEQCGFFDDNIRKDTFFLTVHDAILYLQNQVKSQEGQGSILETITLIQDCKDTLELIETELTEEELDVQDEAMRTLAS
The assay can be described thus: Inhibition of human pendrin expressed in FRT cells co-expressing EYFP-HIF assessed as reduction in pendrin-mediated C17NO3(-) exchange incubated for 10 mins by pH-sensitive fluorescent probe BCECF-AM based fluorescence assay relative to control. The class given is cell-based.

In assay [2] the target is T2, Chloride anion exchanger (Mus musculus) (UniProt Q9WVC8).
T2 sequence (whole entry): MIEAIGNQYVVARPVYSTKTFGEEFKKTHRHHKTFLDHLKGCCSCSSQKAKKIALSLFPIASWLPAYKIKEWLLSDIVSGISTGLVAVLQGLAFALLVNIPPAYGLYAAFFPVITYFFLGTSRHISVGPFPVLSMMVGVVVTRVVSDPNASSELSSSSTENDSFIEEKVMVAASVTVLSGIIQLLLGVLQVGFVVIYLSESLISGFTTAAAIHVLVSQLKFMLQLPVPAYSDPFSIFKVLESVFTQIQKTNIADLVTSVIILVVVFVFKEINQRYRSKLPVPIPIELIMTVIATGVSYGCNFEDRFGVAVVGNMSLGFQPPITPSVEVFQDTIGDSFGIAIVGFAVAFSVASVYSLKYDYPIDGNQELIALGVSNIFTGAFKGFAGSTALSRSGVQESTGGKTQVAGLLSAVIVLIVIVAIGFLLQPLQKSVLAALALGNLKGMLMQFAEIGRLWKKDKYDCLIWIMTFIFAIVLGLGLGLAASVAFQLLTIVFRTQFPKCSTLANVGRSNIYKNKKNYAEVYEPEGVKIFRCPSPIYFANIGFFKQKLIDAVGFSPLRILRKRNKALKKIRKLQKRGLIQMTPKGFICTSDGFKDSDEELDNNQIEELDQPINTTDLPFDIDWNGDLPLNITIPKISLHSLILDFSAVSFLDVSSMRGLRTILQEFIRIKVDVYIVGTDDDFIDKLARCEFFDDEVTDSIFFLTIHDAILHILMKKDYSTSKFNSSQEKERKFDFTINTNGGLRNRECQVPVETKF
The assay can be described thus: Inhibition of myc-tagged mouse Slc26a3 expressed in COS7 co-expressing EYFP-HIF assessed as effect on SCN(-) gradient at 25 uM by YFP-based fluorescence quenching assay.

For assay [3], the target named is T1, Pendrin. The assay can be described thus: Inhibition of human pendrin expressed in FRT cells co-expressing EYFP-HIF assessed as reduction in pendrin-mediated Cl(-)/r exchange incubated for 10 mins by pH-sensitive fluorescent probe BCECF-AM based fluorescence assay relative to control. The class given is cell-based.
Assay [4] relates to Mus musculus. The assay can be described thus: Potentiation of 20 mg/kg, ip furosemide-induced acute diuretic action in CD1 mouse assessed as effect on urinary K+ excretion at 50 mg/kg, ip measured at 3 hrs relative to control. It counts as functional, organism-based.
Assay [5] addresses T1, Pendrin. The assay can be described thus: Inhibition of human pendrin expressed in FRT cells co-expressing EYFP-HIF assessed as reduction in pendrin-mediated C17F exchange incubated for 10 mins by pH-sensitive fluorescent probe BCECF-AM based fluorescence assay relative to control. The class given is cell-based.
The subject of assay [6] is Mus musculus. The assay can be described thus: Potentiation of 20 mg/kg, ip furosemide-induced acute diuretic action in CD1 mouse assessed as effect on urinary K+ excretion at 10 mg/kg, ip measured at 3 hrs relative to control. It counts as functional, organism-based.
Assay [7] is filed under the species Homo sapiens. The assay can be described thus: Effect on airway surface liquid depth in human CFBE at 25 uM by rhodamine B-dextran fluorescence based confocal microscopy. The class given is functional.
The species named for assay [8] is Homo sapiens. The assay can be described thus: Effect on airway surface liquid pH in IL13-stimulated NHBE cells at 25 uM by pH-sensitive fluorophore BCECF based fluorescence based assay. It counts as functional, cell-based.
The species entered for assay [9] is Homo sapiens. The assay can be described thus: Inhibition of ENaC in human bronchial epithelial cells assessed as effect on short-circuit current at 25 uM pre-incubated for 30 mins.
For assay [10], the species on record is Homo sapiens. The assay can be described thus: Effect on gluconate gradient-induced Cl/HC03- efflux in NHBE cells at 25 uM. The class given is functional, cell-based.
For assay [11], the species on record is Homo sapiens. The assay can be described thus: Effect on airway surface liquid pH in IL13-stimulated human CFBE at 25 uM by pH-sensitive fluorophore BCECF based fluorescence based assay. It counts as functional.

Regarding `Cc1n[nH]c(-c2cc(S(=O)(=O)NC3CCCc4ccccc43)c(C)s2)c1C` (stereo unspecified), the IC50 in [1] was 5 µM; in assay [3], 8 µM; in [5], 9 µM. Moreover, the inhibition entry in assay [2] is “inactive”. In addition, the outcome in assay [4] and in [6] was inactive.

`Cn1nc(COc2cccc(F)c2)c2c1CCN(C(=O)Nc1ccc(Cl)cc1)C2`: the result in [7], in assay [8], in [10] and in assay [11] was inactive. Further, the inhibition result in [9] was “inactive”.

By IC50 is commonly meant the midpoint of a concentration-inhibition curve.
